Source: patent US4314063A, “1-Ethyl-1,4,5,6-tetrahydro-6-(2-naphthyl)-4-oxo-nicotinic acid and lower alkyl esters thereof” (Hoffmann-La Roche Inc., priority 1981, dated 1982)
Structures can show the parent of a compound that is named as a salt.

Assays:
Assay type in all cases: in vivo
rats = test: Turning rat test (rotation in rats with unilateral 6-OHDA lesion of the medial forebrain bundle); details: for minimal effective dose: Rattus norvegicus, ip, 1 h, i.p., active = more than 100 turns/hour, 5 rats per dose, read-out: Turning rat test minimum active dosage
Experimental: Female rats weighing 150 g are anaesthetised with pentobarbital (50 mg kg^-1 i.p.) and fixed in a stereotaxic apparatus (David Kopf). A unilateral (right side) injection into the MFB (medial forebrain bundle) of 6-OHDA (6-hydroxy-dopamine), 3 μg as base, dissolved in 4 μl of Ringer solution containing 0.02% ascorbic acid, is carried out through a stainless-steel cannula (diameter 0.3 mm) connected to a microsyringe. The liquid is injected at a speed of 1 μl min^-1 by means of a high precision infusion pump. In order to reach the MFB (medial forebrain bundle), the following coordinates are used: A=+3.8 mm, L (right)=0.9 mm, V=-3 mm according to the Atlas of Konig and Klippel.
After 3 weeks recovery period, the operated rats are injected with apomorphine, 1 mg kg^1- i.p. Those animals showing a regular contralateral (i.e., away from the lesioned side) turning, recorded automatically during 1 hour in a rotometer, are selected for further experiments. At least one week is allowed between each injection of screening compounds.
Drugs which induce rotation are dopamine receptor agonists. If the turning is contralateral (i.e., away from the lesioned side) the drugs are classified as "apomorphine-like", which indicates a direct dopamine-receptor stimulation (postsynaptic). The denervated striatum is more sensitive to dopamine receptor agonistes than the intact one. Agonists therefore affect the denervated striatum more than the intact one. This inbalance results in contralateral turning (rotation).
If the rotation is ipsilateral (i.e., towards the lesioned side), the drugs are classified as "amphetamine-like", which means that they release and/or block the reuptake of dopamine (presynaptic) from nerve terminals on the intact side, whereas they have little if any effect on the striatum with denervated dopamine neurons. The result of this inbalance is an ipsilateral turning.
The total number of ipsilateral or contralateral turns (full rotation around the vertical axes of the body) made by each rat, is automatically recorded over the time (usually 1 hour). 5 rats are injected for each dose and the mean of total turns per hour is determined.
A compound is said active, if it produces more than 100 turns/hour. If a drug induces rotation, but less than 100 turns/hour, it is indicated as slightly active. […] The results are expressed as: […]
Minimal effective dose--if the drug is active

[1] = LD50 (mouse), acute toxicity; details: in vivo, mouse
mouse = test: LD50 (mouse), acute toxicity; details: in words

## CCn1cc(C(=O)O)c(=O)cc1-c1ccc2ccccc2c1 [1-ethyl-1,4-dihydro-6-(2-naphthyl)-4-oxonicotinic acid]
rats
  minimal effective dose: 1 mg/kg
rats; in words, versus d-amphetamine and d-methamphetamine, see Table I
  strength of action compared with d-amphetamine and d-methamphetamine: about the same strength of action
rats; in words, versus nomifensin, see Table I
  action compared with nomifensin: substantially superior to nomifensin
[1]; po
  LD50: 170 mg/kg
mouse; versus d-amphetamine and d-methamphetamine
  LD50 compared with d-amphetamine and d-methamphetamine: substantially lower LD50
mouse; versus nomifensin
  LD50 compared with nomifensin: about the same LD50

## CN1Cc2c(N)cccc2C(c2ccccc2)C1 (stereo not drawn) [Nomifensin, 8-amino-1,2,3,4-tetrahydro-2-methyl-4-phenylisoquinoline]
rats
  minimal effective dose: 3 mg/kg
[1]; po
  LD50: 300 to 600 mg/kg

## C[C@H](N)Cc1ccccc1 [d-Amphetamine . 1/2 H2 SO4]
rats
  minimal effective dose: 1 mg/kg
[1]; iv
  LD50: 14 mg/kg
[1]; po
  LD50: 35 mg/kg
[1]; sc
  LD50: 22 mg/kg

## CN[C@@H](C)Cc1ccccc1 [d-Methamphetamine . HCl]
rats
  minimal effective dose: 1 mg/kg
[1]; iv
  LD50: 9.5 mg/kg
[1]; sc
  LD50: 14 mg/kg
